Results published in ChEMBL document CHEMBL1201862, “PubChem BioAssay data set” (2004).
Counter-ions that a name gives are not always drawn.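 Values below derive from 48-hour exposures of cells grown in 96-well plates, with endpoints linearly interpolated between the two concentrations bracketing the appropriate inhibition level. At the GI50, growth is halved.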 Active and inactive are the calls of the source. Cut-off read from the data, not from the text of the source: active = GI50 up to about 1.1 µM and inactive = higher.

What was measured:
Assay in all cases: NCI tumour cell line growth inhibition, 48 h
BT-549 = tested on: BT-549
Hs-578T = tested on: Hs-578T
DMS-114 = tested on: DMS-114
KM-20L2 = tested on: KM-20L2
LXFL 529 = tested on: LXFL 529
XF498 = tested on: XF498
HOP-18 = tested on: HOP-18
SNB-78 = tested on: SNB-78

Compound	GI50 (BT-549)	GI50 (Hs-578T)	other results
COC1=C(N2CC2)C(=O)c2nc3n(c2C1=O)CCC3	1.15 µM (inactive)	5.09 µM (inactive)	
C#CCOCCCC(=O)O	> 100 µM (inactive)		
NN(CC(=O)O)CC(=O)O	> 100 µM (inactive)	> 100 µM (inactive)	
COc1ccc(OC)c2c(C)ccnc12	27.4 µM (inactive)		
CO/N=C1\CC(NC(=O)CNC(=O)OC(C)(C)C)c2ccsc21 (stereo unspecified)	> 100 µM (inactive)	> 100 µM (inactive)	
COc1cccc(N(CN2CC=CC2=O)C(C)=O)c1		> 100 µM (inactive)	
COc1cc2c(c3c1c(=O)c1ccccc1n3C)C=CC1(CCCCC1)O2	4.84 µM (inactive)	2.54 µM (inactive)	
CC(=O)OCC1OC(n2cnc3nc(Br)[nH]c(=O)c32)C(OC(C)=O)C1OC(C)=O (stereo unspecified)	> 100 µM (inactive)	> 100 µM (inactive)	
COP(=O)(OC)C(=O)N1N(c2ccc([N+](=O)[O-])cc2)C(=O)C(C)NC1(NNc1ccc([N+](=O)[O-])cc1)P(=O)(OC)OC (stereo unspecified)			GI50 (DMS-114): > 100 µM (inactive); GI50 (KM-20L2): > 100 µM (inactive); GI50 (LXFL 529): 57.8 µM (inactive); GI50 (XF498): > 100 µM (inactive)
CNC(=O)CCCN(C)C(=O)CCCCC(=O)N(C)C	> 62.8 µM (inactive)	> 56.9 µM (inactive)	
CCOC(=O)Cn1c(=O)c2cc(-c3ccccc3)cc3c(Cl)nc4c(OC)c(OC)cc1c4c32	18.5 µM (inactive)	6.97 µM (inactive)	
COc1cc(S(=O)(=O)Nc2nc(-c3ccc(N4C(=O)C(CC(=O)O)SC4c4cccs4)cc3)cs2)ccc1Cl (stereo unspecified)		46 µM (inactive)	
CCOC(=O)NC(=O)c1cn(CCCCCOC(=O)NCCCCCCNC(=O)OCCCCCn2cc(C(=O)NC(=O)OCC)c(=O)[nH]c2=O)c(=O)[nH]c1=O			GI50 (DMS-114): > 100 µM (inactive); GI50 (HOP-18): > 100 µM (inactive); GI50 (KM-20L2): > 100 µM (inactive); GI50 (LXFL 529): > 100 µM (inactive); GI50 (SNB-78): > 100 µM (inactive)
CC(=O)Nc1cc2ccc(=O)oc2cc1Cl	> 100 µM (inactive)	> 100 µM (inactive)	
O=C1COc2cccnc2N1CCCCO	> 100 µM (inactive)	> 100 µM (inactive)	
C=C1CC[C@@H](CCC2CCC3(OC2)O[C@]2(O)CC[C@@]3(C)OC2(C)C)C(C)(C)[C@H]1C/C=C1\CCOC1=O (stereo partly specified)	11.7 µM (inactive)	20.5 µM (inactive)	
CC(=O)C(=N\Nc1ccc(Cl)cc1)/C(C)=N/c1ccc(C)cc1	51.4 µM (inactive)	44.4 µM (inactive)	
COc1cc(/C=C2\N=C(c3ccccc3)N(/N=C/c3cc4cc(C)ccc4nc3Cl)C2=O)ccc1O	63.8 µM (inactive)	40.6 µM (inactive)	
CCOC(=O)c1nnsc1NN	> 100 µM (inactive)	> 100 µM (inactive)	
COc1ccccc1N1C(=O)CSC1c1cccc(Oc2ccccc2)c1 (stereo unspecified)	17.1 µM (inactive)	20.9 µM (inactive)	
Cc1cc2c(c(C(N)=O)c1C)-c1cccc(F)c1C2=O			GI50 (DMS-114): > 100 µM (inactive); GI50 (KM-20L2): > 100 µM (inactive); GI50 (LXFL 529): > 100 µM (inactive); GI50 (SNB-78): > 100 µM (inactive); GI50 (XF498): 57.3 µM (inactive)
O=C(O)CCCc1nc2c(n1Cc1ccccc1)C(=O)c1ccccc1C2=O		75.7 µM (inactive)	
Cc1cc(O)nc(NN2C(Cl)C(=O)C2c2ccc([N+](=O)[O-])cc2)n1 (stereo unspecified)			GI50 (DMS-114): 8.07 µM (inactive); GI50 (HOP-18): 11.3 µM (inactive); GI50 (KM-20L2): 17.1 µM (inactive); GI50 (LXFL 529): 7.67 µM (inactive); GI50 (SNB-78): 7.36 µM (inactive)
CC(=O)O[C@H]1C[C@H]2C(=S)Nc3ccccc3C(=S)N2C1	> 100 µM (inactive)	> 100 µM (inactive)	
COC1=CC2(CC(OC)=C1OC)OC21COc2ccccc2C1=O (stereo unspecified)	> 100 µM (inactive)	> 100 µM (inactive)	
CCN(CC)CCNc1ccc2ncn3c4ccccc4c(=O)c1c23			GI50 (DMS-114): 5.07 µM (inactive); GI50 (HOP-18): 10 µM (inactive); GI50 (KM-20L2): 3.85 µM (inactive); GI50 (LXFL 529): 3.77 µM (inactive); GI50 (SNB-78): 3.03 µM (inactive)

Compound	GI50 (BT-549)	GI50 (Hs-578T)	other results
Cc1nc(C(N)=S)sc1C(=O)C/C(=N/N)C(=O)Nc1ccc(Cl)cc1	> 100 µM (inactive)	39.1 µM (inactive)	
COc1ccc2[nH]c3c([N+](=O)[O-])ccc(Cl)c3c(=O)c2c1	17.2 µM (inactive)	30.3 µM (inactive)	
CCSCCC(N)C(=O)O (stereo unspecified)	> 100 µM (inactive)	> 100 µM (inactive)	
CCOc1ccc(/C=C2\N=C(c3ccccc3)OC2=O)cc1	> 100 µM (inactive)	> 100 µM (inactive)	
O=C1c2c[nH]nc2C(c2ccccc2)N1c1ccccc1 (stereo unspecified)	> 10 µM (inactive)	> 10 µM (inactive)	
O=C1CCCC(=O)N1n1c(Cc2ccccc2)n[nH]c1=O	> 100 µM (inactive)	> 100 µM (inactive)	
COC(=O)C(N)CCCC(N)C(=O)NC(C)C(=O)NC(CCC(=O)NCCNCCNc1c2ccccc2nc2cccc([N+](=O)[O-])c12)C(N)=O (stereo unspecified)	16.3 µM (inactive)	17.9 µM (inactive)	
CC(=O)c1c(CO[N+](=O)[O-])[n+]([O-])c2ccccc2[n+]1[O-]	> 100 µM (inactive)	41.1 µM (inactive)	
NCCCCC(N)C(=O)N1CCN(c2nc(N3CCCC3)c3nc(Cl)c(NCc4ccccc4)nc3n2)CC1 (stereo unspecified)	18.5 µM (inactive)	19.4 µM (inactive)	
COC(=O)[C@H](Cc1ccccc1)NC(=O)OCC1OC(n2cc(C)c(=O)[nH]c2=O)CC1N=[N+]=[N-] (stereo partly specified)	> 100 µM (inactive)	0.0617 µM (active)	
C[C@]12CC[C@H]3[C@@H](CCC4=CC(=O)CC[C@@]43C)[C@@H]1CC[C@@H]2OC(=O)c1cccc2c(=O)c3ccccc3[nH]c12	58.1 µM (inactive)	12.1 µM (inactive)	
OCCN(CCO)c1ccc2c(c1)Cc1ccccc1-2		37.1 µM (inactive)	
CC1c2c(Cl)nc3ccccc3c2Oc2c1c(Cl)nc1ccccc21			GI50 (DMS-114): 66.1 µM (inactive); GI50 (HOP-18): 7.21 µM (inactive); GI50 (KM-20L2): > 100 µM (inactive); GI50 (LXFL 529): 53.5 µM (inactive); GI50 (SNB-78): > 100 µM (inactive)
CC1(C)CCCCCCC2CC2CCCCCC(C)(C)C1=O (stereo unspecified)	> 100 µM (inactive)	> 100 µM (inactive)	
COc1ccc(C2CC(=O)CC(c3ccc(OC)cc3)C23C(=O)NC(=S)NC3=O)cc1 (stereo unspecified)	> 100 µM (inactive)		
O=C1CNCCCN2CCN(CCCNCC(=O)Nc3ccc(cc3)S(=O)(=O)c3ccc(cc3)NC(=O)CNCCCN3CCN(CCCNCC(=O)Nc4ccc(cc4)S(=O)(=O)c4ccc(cc4)N1)CC3)CC2	30 µM (inactive)	> 45.4 µM (inactive)	
C/C(Cl)=N/OC(=O)Nc1ccc(F)c([N+](=O)[O-])c1	14.1 µM (inactive)	0.457 µM (active)	
CC(OC(=O)NCn1cc(-c2ccccc2)nn1)c1ccccc1 (stereo unspecified)	32.4 µM (inactive)		
COc1cc2c(c(OC)c1OC)C(=O)[C@@H]1[C@H]2N1C(N)=O		96.2 µM (inactive)	
COP1(=O)Oc2ccccc2C(=O)C(C(F)(F)F)(C(F)(F)F)O1 (stereo unspecified)			GI50 (DMS-114): > 100 µM (inactive); GI50 (KM-20L2): > 100 µM (inactive); GI50 (LXFL 529): > 100 µM (inactive); GI50 (XF498): 85.9 µM (inactive)
CC(=O)OC12c3ccccc3-c3ccccc3C1C(C(=O)O)C2(Cl)C(=O)O (stereo unspecified)		> 10 µM (inactive)	
O=C1/C(=C/c2cccc(Br)c2)Cc2ccccc21	34.5 µM (inactive)	29.4 µM (inactive)	
O=C(OCc1ccccc1[N+](=O)[O-])N1c2ccccc2[C@@]23O[C@]24CCC[C@H]3C#C/C=C\C#C[C@H]14	49.5 µM (inactive)	66.5 µM (inactive)	
COc1cc2c(cc1-c1coc3cc(O)ccc3c1=O)OCO2 [CUNEATIN]	19.5 µM (inactive)	22.2 µM (inactive)	
Oc1ccc(C(O)C2CCCCN2)cc1O (stereo unspecified) [RIMITEROL HYDROBROMIDE]	> 100 µM (inactive)	> 100 µM (inactive)	
